Experimental data: the supplement of paper PMC9013687

How the values were obtained:
[1] = system: Danio rerio embryo; assay: spontaneous tail coiling frequency (coils/min/embryo); higher = more spontaneous movement; settings: 25 hpf
Method: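 Spontaneous tail coilings of zebrafish embryos exposed from 2 hpf were recorded at 24-25 hpf in 1-min videos and detected by a KNIME workflow from grey-value variance. Betamethasone was tested as the dipropionate, diflorasone as the diacetate.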

[2] = system: Danio rerio embryo; settings: exposure time: 4 dpf
Method: (§1)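 Zebrafish embryos (UFZ-OBI strain) were exposed from 2 hpf for 48 h (2 dpf) or 96 h (4 dpf) at 28 °C; spontaneous tail coiling was scored at 25 hpf. Morphological features from automated image analysis (FishInspector), heart rate and locomotor response were fitted with drc models. Quantal endpoints were dichotomised at 2.5 SD from controls and fitted with a log-logistic model; heart rate, pigmentation and STC were normalised to the replicate control mean. Betamethasone was tested as betamethasone dipropionate, diflorasone as diflorasone diacetate.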

[3] = system: Danio rerio embryo
Method: as §1

[4] = system: Danio rerio embryo; settings: exposure time: 4 dpf; remark: listed apart in the source
Method: as §1

[5] = system: Danio rerio embryo; remark: listed apart in the source
Method: as §1

[6] = system: Danio rerio embryo; assay: EC50 Eye size_Decrease; settings: exposure time: 2 dpf
Method: as §1

[7] = system: Danio rerio embryo; assay: EC50 Curvature_Increase; settings: exposure time: 2 dpf
Method: as §1

[8] = system: Danio rerio embryo; assay: EC50 Body length_Decrease
Method: as §1

[9] = system: Danio rerio embryo; assay: EC50 Bladder size_Decrease; settings: exposure time: 4 dpf
Method: as §1

[10] = system: Danio rerio embryo; assay: EC50 Pericard size_Increase; settings: exposure time: 2 dpf
Method: as §1

[11] = system: Danio rerio embryo; assay: EC50 Yolk sac size_Increase; settings: exposure time: 4 dpf
Method: as §1

[12] = system: Danio rerio embryo; assay: EC50 Eye-jaw distance_Decrease; settings: exposure time: 4 dpf
Method: as §1

[13] = system: Danio rerio embryo; assay: EC10 LMR dark; higher = less potent; settings: exposure time: 4 dpf
Method: as §1

[14] = system: Danio rerio embryo; assay: EC20 LMR dark; higher = less potent; settings: exposure time: 4 dpf
Method: as §1

[15] = system: Danio rerio embryo; assay: EC10 Heart rate; higher = less potent
Method: as §1

[16] = system: Danio rerio embryo; assay: EC10 Lack of SB; higher = less potent; settings: exposure time: 4 dpf
Method: as §1

[17] = system: Danio rerio embryo; assay: EC20 Lack of SB; higher = less potent; settings: exposure time: 4 dpf
Method: as §1

[18] = system: Danio rerio embryo; assay: EC20 Any effect; higher = less potent
Method: as §1

[19] = system: Danio rerio embryo; assay: EC10 Any effect; higher = less potent
Method: as §1

[20] = system: Danio rerio embryo; assay: EC20 Heart rate; higher = less potent
Method: as §1

[21] = system: Danio rerio embryo; assay: EC20 Eye size_Decrease; higher = less potent; settings: exposure time: 2 dpf
Method: as §1

[22] = system: Danio rerio embryo; assay: EC10 Eye size_Decrease; higher = less potent; settings: exposure time: 2 dpf
Method: as §1

[23] = system: Danio rerio embryo; assay: EC10 Curvature_Increase; higher = less potent; settings: exposure time: 2 dpf
Method: as §1

[24] = system: Danio rerio embryo; assay: EC20 Curvature_Increase; higher = less potent; settings: exposure time: 2 dpf
Method: as §1

[25] = system: Danio rerio embryo; assay: EC20 Body length_Decrease; higher = less potent
Method: as §1

[26] = system: Danio rerio embryo; assay: EC10 Body length_Decrease; higher = less potent
Method: as §1

[27] = system: Danio rerio embryo; assay: EC10 Pigmentation increase; higher = less potent; settings: exposure time: 4 dpf
Method: as §1

[28] = system: Danio rerio embryo; assay: EC10 Bladder size_Decrease; higher = less potent; settings: exposure time: 4 dpf
Method: as §1

[29] = system: Danio rerio embryo; assay: EC20 Pigmentation increase; higher = less potent; settings: exposure time: 4 dpf
Method: as §1

[30] = system: Danio rerio embryo; assay: EC20 Bladder size_Decrease; higher = less potent; settings: exposure time: 4 dpf
Method: as §1

[31] = system: Danio rerio embryo; assay: EC20 Yolk sac size_Increase; higher = less potent; settings: exposure time: 4 dpf
Method: as §1

[32] = system: Danio rerio embryo; assay: EC20 Pericard size_Increase; higher = less potent; settings: exposure time: 2 dpf
Method: as §1

[33] = system: Danio rerio embryo; assay: EC10 Yolk sac size_Increase; higher = less potent; settings: exposure time: 4 dpf
Method: as §1

[34] = system: Danio rerio embryo; assay: EC10 Pericard size_Increase; higher = less potent; settings: exposure time: 2 dpf
Method: as §1

[35] = system: Danio rerio embryo; assay: EC20 Eye-jaw distance_Decrease; higher = less potent; settings: exposure time: 4 dpf
Method: as §1

[36] = system: Danio rerio embryo; assay: EC10 Eye-jaw distance_Decrease; higher = less potent; settings: exposure time: 4 dpf
Method: as §1

COc1ccc(Cl)cc1C(=O)NCCc1ccc(S(=O)(=O)NC(=O)NC2CCCCC2)cc1 [Glibenclamide]
[1]
Settings	spontaneous tail coiling frequency
3.16 µM	1.79
3.2 µM	0.98
6.3 µM	1.48
6.33 µM	1.79
12.65 µM	0.8
12.7 µM	1.41
25.3 µM	1.69
50.6 µM	1.97
50.61 µM	1.66

CC1(C)OC(=O)C(OCC2CC2)=C1c1ccc(S(C)(=O)=O)cc1 [Firocoxib]
Settings	EC10 Bladder size Decrease [µM]	EC10 Curvature Increase [µM]	EC10 Eye size Decrease [µM]	EC10 Eye-jaw distance Decrease [µM]	EC10 LMR dark [µM]	EC10 Lack of SB [µM]	EC10 Pericard size Increase [µM]	EC10 Pigmentation increase [µM]	EC10 Yolk sac size Increase [µM]	EC20 Bladder size Decrease [µM]	EC20 Curvature Increase [µM]	EC20 Eye size Decrease [µM]	EC20 Eye-jaw distance Decrease [µM]	EC20 LMR dark [µM]	EC20 Lack of SB [µM]	EC20 Pericard size Increase [µM]	EC20 Pigmentation increase [µM]	EC20 Yolk sac size Increase [µM]	EC50 Bladder size Decrease [µM]	EC50 Curvature Increase [µM]	EC50 Eye size Decrease [µM]	EC50 Eye-jaw distance Decrease [µM]	EC50 LMR dark [µM]	EC50 Lack of SB [µM]	EC50 Pericard size Increase [µM]	EC50 Yolk sac size Increase [µM]
[2]	–	–	–	–	–	–	–	–	–	–	–	–	–	–	–	–	–	–	–	–	–	–	–	64.6	–	–
[4]	–	–	–	–	–	–	–	–	–	–	–	–	–	–	–	–	–	–	–	–	–	–	53.7	–	–	–
[6]	–	–	–	–	–	–	–	–	–	–	–	–	–	–	–	–	–	–	–	–	128	–	–	–	–	–
[7]	–	–	–	–	–	–	–	–	–	–	–	–	–	–	–	–	–	–	–	109	–	–	–	–	–	–
[9]	–	–	–	–	–	–	–	–	–	–	–	–	–	–	–	–	–	–	56.3	–	–	–	–	–	–	–
[10]	–	–	–	–	–	–	–	–	–	–	–	–	–	–	–	–	–	–	–	–	–	–	–	–	108	–
[11]	–	–	–	–	–	–	–	–	–	–	–	–	–	–	–	–	–	–	–	–	–	–	–	–	–	128
[12]	–	–	–	–	–	–	–	–	–	–	–	–	–	–	–	–	–	–	–	–	–	123	–	–	–	–
[13]	–	–	–	–	13.9	–	–	–	–	–	–	–	–	–	–	–	–	–	–	–	–	–	–	–	–	–
[14]	–	–	–	–	–	–	–	–	–	–	–	–	–	22.9	–	–	–	–	–	–	–	–	–	–	–	–
[16]	–	–	–	–	–	34.7	–	–	–	–	–	–	–	–	–	–	–	–	–	–	–	–	–	–	–	–
[17]	–	–	–	–	–	–	–	–	–	–	–	–	–	–	43.7	–	–	–	–	–	–	–	–	–	–	–
[21]	–	–	–	–	–	–	–	–	–	–	–	93.3	–	–	–	–	–	–	–	–	–	–	–	–	–	–
[22]	–	–	77.4	–	–	–	–	–	–	–	–	–	–	–	–	–	–	–	–	–	–	–	–	–	–	–
[23]	–	74.2	–	–	–	–	–	–	–	–	–	–	–	–	–	–	–	–	–	–	–	–	–	–	–	–
[24]	–	–	–	–	–	–	–	–	–	–	85.4	–	–	–	–	–	–	–	–	–	–	–	–	–	–	–
[27]	–	–	–	–	–	–	–	83	–	–	–	–	–	–	–	–	–	–	–	–	–	–	–	–	–	–
[28]	31.5	–	–	–	–	–	–	–	–	–	–	–	–	–	–	–	–	–	–	–	–	–	–	–	–	–
[29]	–	–	–	–	–	–	–	–	–	–	–	–	–	–	–	–	100	–	–	–	–	–	–	–	–	–
[30]	–	–	–	–	–	–	–	–	–	39	–	–	–	–	–	–	–	–	–	–	–	–	–	–	–	–
[31]	–	–	–	–	–	–	–	–	–	–	–	–	–	–	–	–	–	68.9	–	–	–	–	–	–	–	–
[32]	–	–	–	–	–	–	–	–	–	–	–	–	–	–	–	58.3	–	–	–	–	–	–	–	–	–	–
[33]	–	–	–	–	–	–	–	–	48.1	–	–	–	–	–	–	–	–	–	–	–	–	–	–	–	–	–
[34]	–	–	–	–	–	–	40.6	–	–	–	–	–	–	–	–	–	–	–	–	–	–	–	–	–	–	–
[35]	–	–	–	–	–	–	–	–	–	–	–	–	93.2	–	–	–	–	–	–	–	–	–	–	–	–	–
[36]	–	–	–	79.2	–	–	–	–	–	–	–	–	–	–	–	–	–	–	–	–	–	–	–	–	–	–

Settings	EC10 Any effect [µM]	EC10 Body length Decrease [µM]	EC10 Heart rate [µM]	EC20 Any effect [µM]	EC20 Body length Decrease [µM]	EC20 Heart rate [µM]	EC50 Any effect [µM]	EC50 Body length Decrease [µM]	EC50 Heart rate [µM]	spontaneous tail coiling frequency
[1], 14.9 µM	–	–	–	–	–	–	–	–	–	2.83
[1], 29.7 µM	–	–	–	–	–	–	–	–	–	2.54
[1], 59.4 µM	–	–	–	–	–	–	–	–	–	3.5
[1], 59.5 µM	–	–	–	–	–	–	–	–	–	2.46
[1], 89.2 µM	–	–	–	–	–	–	–	–	–	2.31
[1], 104 µM	–	–	–	–	–	–	–	–	–	3
[1], 133.8 µM	–	–	–	–	–	–	–	–	–	3.06
[3], exposure time: 2 dpf	–	–	–	–	–	–	121	–	–	–
[3], exposure time: 4 dpf	–	–	–	–	–	–	147	–	–	–
[5], exposure time: 2 dpf	–	–	–	–	–	–	–	–	181	–
[5], exposure time: 4 dpf	–	–	–	–	–	–	–	–	56.2	–
[8], exposure time: 2 dpf	–	–	–	–	–	–	–	109	–	–
[8], exposure time: 4 dpf	–	–	–	–	–	–	–	113	–	–
[15], exposure time: 2 dpf	–	–	86.2	–	–	–	–	–	–	–
[15], exposure time: 4 dpf	–	–	31.2	–	–	–	–	–	–	–
[18], exposure time: 2 dpf	–	–	–	73.7	–	–	–	–	–	–
[18], exposure time: 4 dpf	–	–	–	85.4	–	–	–	–	–	–
[19], exposure time: 2 dpf	55.3	–	–	–	–	–	–	–	–	–
[19], exposure time: 4 dpf	62.1	–	–	–	–	–	–	–	–	–
[20], exposure time: 2 dpf	–	–	–	–	–	113	–	–	–	–
[20], exposure time: 4 dpf	–	–	–	–	–	38.8	–	–	–	–
[25], exposure time: 2 dpf	–	–	–	–	82.7	–	–	–	–	–
[25], exposure time: 4 dpf	–	–	–	–	94.5	–	–	–	–	–
[26], exposure time: 2 dpf	–	70.3	–	–	–	–	–	–	–	–
[26], exposure time: 4 dpf	–	85	–	–	–	–	–	–	–	–
